This test has as its target T1, thrombin receptor (Homo sapiens, UniProt P25116).
T1 construct: washed human platelets are prepared from blood drawn from healthy volunteers; endogenous in cells; host or cells: washed human platelets from healthy volunteers
T1 sequence (P25116 22-425): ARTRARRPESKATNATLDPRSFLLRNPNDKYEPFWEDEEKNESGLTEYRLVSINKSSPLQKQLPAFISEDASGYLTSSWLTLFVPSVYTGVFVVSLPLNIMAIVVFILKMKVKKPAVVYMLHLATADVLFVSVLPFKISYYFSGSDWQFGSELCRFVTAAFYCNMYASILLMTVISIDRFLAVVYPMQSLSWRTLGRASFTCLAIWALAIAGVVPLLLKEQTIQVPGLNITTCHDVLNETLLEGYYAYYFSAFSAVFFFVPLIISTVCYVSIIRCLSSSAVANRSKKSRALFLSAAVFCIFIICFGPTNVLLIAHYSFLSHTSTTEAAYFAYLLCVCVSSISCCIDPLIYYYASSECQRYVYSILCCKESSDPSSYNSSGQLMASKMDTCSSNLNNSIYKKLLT
In words: Platelet aggregation assay for thrombin receptor antagonist activity (washed human platelets stimulated with α-thrombin). It counts as cell-based. As for the experimental part:
The compounds of the present invention may be tested for thrombin receptor antagonist activity by using a platelet aggregation assay. In this assay, washed human platelets are prepared from blood drawn from healthy volunteers who have not ingested any medications for two weeks prior to donation. Blood is drawn into 12.5% (vol/vol) ACD (85 mM sodium citrate, 111 mM dextrose, 71 mM citric acid) containing 0.1% (vol/vol) PGI2 (0.05 mg/mL PGI2, 100 mM Tris, pH 12). Platelet-rich plasma was obtained by centrifugation at 160×g for 20 minutes. The platelets were pelleted by centrifugation at 760×g for 10 minutes and resuspended in CGS (13 mM trisodium citrate, 120 mM sodium chloride, 30 mM dextrose, pH 7.0) containing 0.1% (vol/vol) PGI2, repelleted and resuspended in Tyrodes buffer (10 mM Hepes, 12 mM sodium bicarbonate, 138 mM sodium chloride, 5.5 mM glucose, 2.9 mM potassium chloride, 1.0 mM calcium chloride, pH 7.4) and stored at 37° C. Approximately 0.4-10 nM α-thrombin is used to stimulate platelet aggregation in control reactions which are monitored by aggregometry using an aggregometer. Candidate antagonists are added to the platelet mixture followed by the addition of thrombin in order to assess their ability to prevent thrombin-mediated aggregation.
Platelet aggregation can also be measured with washed platelets in 96-well microtiter plates as described in Fratantoni, J. C. et al., Am. J. Clin. Pathol. 94:613-617 (1990). The ability of the antagonists to block the thrombin receptor was assessed in this assay using various concentrations of antagonists. The concentration at which 50% inhibition of platelet aggregation is achieved is defined as IC50.

[1] abbreviates: washed human platelets, thrombin-mediated aggregation, read-out: IC50 (concentration at which 50% inhibition of platelet aggregation is achieved).

Like-named read-outs stand apart in the source and are kept apart here. Where a SMILES comes first, the peptide text is derived from it. [ ]: non-standard residue; d: D form. The star is where a group is joined. Isoquinolin(3-yl)carbonyl = O=C(c1cc2ccccc2cn1)*; 2Naphthylsulfonyl = O=S(=O)(c1ccc2ccccc2c1)*; Quinoxaline2carbonyl = O=C(c1cnc2ccccc2n1)*; Quinoline3carbonyl = O=C(c1cnc2ccccc2c1)*; X6 = CCCCCN(CCCCC)[C@@H](Cc1ccccc1)C(=O)*; X5 = CCCCCN(C)[C@@H](Cc1ccccc1)C(=O)*; X20 = CCCCC(Oc1cccc2ccccc12)C(=O)*; X4 = CCCCCN1Cc2ccccc2C[C@H]1C(=O)*; NMeR = CN[C@@H](CCCNC(=N)N)C(=O)O; Quinaldoyl = O=C(c1ccc2ccccc2n1)*; Cha = N[C@@H](CC1CCCCC1)C(=O)O; dCha = N[C@H](CC1CCCCC1)C(=O)O; X2 = O=C(Cc1c[nH]c2ccccc12)*; X8 = O=C(C1CCc2ccccc2C1)* Where only a bound is given, the exact number is not on record here.

As for `CCCCCC/C(=C\c1ccccc1)CN[C@@H](CC1CCCCC1)C(=O)N[C@@H](CC1CCCCC1)C(=O)N[C@@H](CCCNC(=N)N)C(=O)N[C@@H](CCCCN)C(N)=O` [Compound 26], the IC50 under setting [1] stood at 7.5 µM.
Consider `CCCCC(Oc1cccc2ccccc12)C(=O)N[C@@H](CC1CCCCC1)C(=O)N[C@@H](CC1CCCCC1)C(=O)N[C@@H](CCCNC(=N)N)C(=O)N[C@@H](CCCCN)C(N)=O` (stereo partly shown) [Compound 27] (X20-[Cha][Cha]RK-NH2), for which the IC50 under setting [1] was 5 µM.
The same measure, in the same setting: with `N=C(N)NCCC[C@H](NC(=O)[C@H](CC1CCCCC1)NC(=O)[C@H](CC1CCCCC1)NC(=O)c1ccc2ccccc2n1)C(=O)N[C@@H](CCCCN)C(N)=O` [Compound 28] (Quinaldoyl-[Cha][Cha]RK-NH2) the figure was 30 µM; with `N=C(N)NCCC[C@H](NC(=O)[C@H](CC1CCCCC1)NC(=O)[C@H](CC1CCCCC1)NC(=O)c1cnc2ccccc2c1)C(=O)N[C@@H](CCCCN)C(N)=O` [Compound 29] (Quinoline3carbonyl-[Cha][Cha]RK-NH2), more than 200 µM.
Still for that read-out and setting: with `N=C(N)NCCC[C@H](NC(=O)[C@H](CC1CCCCC1)NC(=O)[C@H](CC1CCCCC1)NC(=O)Cc1c[nH]c2ccccc12)C(=O)N[C@@H](CCCCN)C(N)=O` [Compound 30] (X2-[Cha][Cha]RK-NH2) the figure was 20 µM; with `N=C(N)NCCC[C@H](NC(=O)[C@H](CC1CCCCC1)NC(=O)[C@H](CC1CCCCC1)NC(=O)C1CCc2ccccc2C1)C(=O)N[C@@H](CCCCN)C(N)=O` (stereo partly shown) [Compound 31] (X8-[Cha][Cha]RK-NH2), more than 200 µM.
The compound `N=C(N)NCCC[C@H](NC(=O)[C@H](CC1CCCCC1)NC(=O)[C@H](CC1CCCCC1)NC(=O)c1cc2ccccc2cn1)C(=O)N[C@@H](CCCCN)C(N)=O` [Compound 32] ({Isoquinolin(3-yl)carbonyl}-[Cha][Cha]RK-NH2) had an IC50 of 15 µM.
Take `N=C(N)NCCC[C@H](NC(=O)[C@H](CC1CCCCC1)NC(=O)[C@H](CC1CCCCC1)NC/C=C/c1ccccc1)C(=O)N[C@@H](CCCCN)C(N)=O` [Compound 33]: under setting [1], the IC50 stood at 5 µM.
In the case of `C/C(=C\c1ccccc1)CN[C@@H](CC1CCCCC1)C(=O)N[C@@H](CC1CCCCC1)C(=O)N[C@@H](CCCNC(=N)N)C(=O)N[C@@H](CCCCN)C(N)=O` [Compound 34], under setting [1], the IC50 was determined as 15 µM.
Same read-out and setting: with `CC/C(=C\c1ccccc1)CN[C@@H](CC1CCCCC1)C(=O)N[C@@H](CC1CCCCC1)C(=O)N[C@@H](CCCNC(=N)N)C(=O)N[C@@H](CCCCN)C(N)=O` [Compound 35] the figure was 20 µM.
In the case of `CC(COc1ccccc1)N[C@@H](CC1CCCCC1)C(=O)N[C@@H](CC1CCCCC1)C(=O)N[C@@H](CCCNC(=N)N)C(=O)N[C@@H](CCCCN)C(N)=O` (stereo partly shown) [Compound 36], the IC50 under setting [1] was 7.5 µM.
Same read-out and setting: with `N=C(N)NCCC[C@H](NC(=O)[C@H](CC1CCCCC1)NC(=O)[C@H](CC1CCCCC1)NC(=O)c1cnc2ccccc2n1)C(=O)N[C@@H](CCCCN)C(N)=O` [Compound 37] (Quinoxaline2carbonyl-[Cha][Cha]RK-NH2) the figure was more than 100 µM.
On the same count and under the same terms, with `N=C(N)NCCC[C@H](NC(=O)[C@H](CC1CCCCC1)NC(=O)[C@H](CC1CCCCC1)NS(=O)(=O)c1ccc2ccccc2c1)C(=O)N[C@@H](CCCCN)C(N)=O` [Compound 38] (2Naphthylsulfonyl-[Cha][Cha]RK-NH2) the figure was 10 µM.
Still for that read-out and setting: with `CCCCCN1Cc2ccccc2C[C@H]1C(=O)N[C@@H](CC1CCCCC1)C(=O)N[C@@H](CC1CCCCC1)C(=O)N(C)[C@@H](CCCNC(=N)N)C(=O)N[C@@H](CCCNC(=N)N)C(N)=O` [Compound 39] (X4-[Cha][Cha][NMeR]R-NH2) the figure was 8 µM; with `CCCCCN(CCCCC)[C@@H](Cc1ccccc1)C(=O)N[C@@H](CC1CCCCC1)C(=O)N[C@H](CC1CCCCC1)C(=O)N[C@@H](CCCNC(=N)N)C(=O)N[C@@H](CCCCN)C(N)=O` [Compound 42] (X6-[Cha][dCha]RK-NH2), 2 µM.
In turn, `CCCCCN(C)[C@@H](Cc1ccccc1)C(=O)N[C@@H](CC1CCCCC1)C(=O)N[C@H](CC1CCCCC1)C(=O)N[C@@H](CCCNC(=N)N)C(=O)N[C@@H](CCCCN)C(N)=O` [Compound 43] (X5-[Cha][dCha]RK-NH2) registered an IC50 of 15 µM.

For the origin of these results see US5866681A, “Thrombin receptor antagonists” (priority 1995, dated 1999).
